According to PubChem BioAssay AID330 (DTP/NCI, 2004):
Where “and” joins values, the source holds several entries; their conditions need not be identical. Equal values may be shown once. Toxic doses and inconclusive results are not listed.

Tested on: P388 leukemia ip, CD2F1 mice, survival T/C
Test: NCI In Vivo Anticancer Drug Screen. Data for tumor model P388 Leukemia (intraperitoneal) in CD2F1 (CDF1) mice
Conditions: endpoint: median survival time, higher = longer survival
Procedure, shortened: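 Mice carrying the transplanted tumor received test compound or vehicle. Survival was recorded in each group, and the value is the treated-group measurement divided by that of the vehicle-treated control group.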

[1] = dose: 50.0 mg/kg/injection, schedule: Q01DX009 (ip), vehicle: Klucel (hydroxypropylcellulose) (HPC)
[2] = dose: 100.0 mg/kg/injection, schedule: Q01DX009 (ip), vehicle: Klucel (hydroxypropylcellulose) (HPC)
[3] = dose: 200.0 mg/kg/injection, schedule: Q01DX009 (ip), vehicle: Klucel (hydroxypropylcellulose) (HPC)
[4] = dose: 12.5 mg/kg/injection, schedule: Q01DX009 (ip), vehicle: saline
[5] = dose: 25.0 mg/kg/injection, schedule: Q01DX009 (ip), vehicle: saline
[6] = dose: 50.0 mg/kg/injection, schedule: Q01DX009 (ip), vehicle: saline
[7] = dose: 50.0 mg/kg/injection, schedule: Q01DX005 (ip), vehicle: saline with Tween-80
[8] = dose: 100.0 mg/kg/injection, schedule: Q01DX005 (ip), vehicle: saline with Tween-80
[9] = dose: 200.0 mg/kg/injection, schedule: Q01DX005 (ip), vehicle: saline with Tween-80
[10] = dose: 50.0 mg/kg/injection, schedule: Q01DX009 (ip), vehicle: saline with Tween-80
[11] = dose: 100.0 mg/kg/injection, schedule: Q01DX009 (ip), vehicle: saline with Tween-80
[12] = dose: 200.0 mg/kg/injection, schedule: Q01DX009 (ip), vehicle: saline with Tween-80
[13] = dose: 400.0 mg/kg/injection, schedule: Q01DX009 (ip), vehicle: saline with Tween-80
[14] = dose: 6.25 mg/kg/injection, schedule: Q01DX009 (ip), vehicle: saline
[15] = dose: 50.0 mg/kg/injection, schedule: Q01DX005 (ip), vehicle: Klucel (hydroxypropylcellulose) (HPC)
[16] = dose: 100.0 mg/kg/injection, schedule: Q01DX005 (ip), vehicle: Klucel (hydroxypropylcellulose) (HPC)
[17] = dose: 200.0 mg/kg/injection, schedule: Q01DX005 (ip), vehicle: Klucel (hydroxypropylcellulose) (HPC)
[18] = dose: 50.0 mg/kg/injection, schedule: Q01DX005 (ip), vehicle: saline
[19] = dose: 100.0 mg/kg/injection, schedule: Q01DX005 (ip), vehicle: saline
[20] = dose: 200.0 mg/kg/injection, schedule: Q01DX005 (ip), vehicle: saline

CCNC(=O)CCC(NS(=O)(=O)c1ccc(C)cc1)C(=O)O (stereo unspecified) was tested, and the T/C (dose: 100.0 mg/kg/injection, schedule: Q04DX002 (ip), vehicle: Klucel (hydroxypropylcellulose) (HPC)) was 100 % of control, the T/C (dose: 200.0 mg/kg/injection, schedule: Q04DX002 (ip), vehicle: Klucel (hydroxypropylcellulose) (HPC)) was 100 % of control and the T/C (dose: 400.0 mg/kg/injection, schedule: Q04DX002 (ip), vehicle: Klucel (hydroxypropylcellulose) (HPC)) was 105 % of control.

In the case of CC1(C)CC(=O)C(CSc2ccccc2)C(=O)C1, the T/C (dose: 12.5 mg/kg/injection, schedule: Q01DX001 (ip), vehicle: saline) is reported as 108 % of control, the T/C (dose: 25.0 mg/kg/injection, schedule: Q01DX001 (ip), vehicle: Klucel (hydroxypropylcellulose) (HPC)) is reported as 100 % of control and the T/C (dose: 25.0 mg/kg/injection, schedule: Q01DX001 (ip), vehicle: saline) is reported as 111 % of control. For the same compound, the T/C (dose: 50.0 mg/kg/injection, schedule: Q01DX001 (ip), vehicle: Klucel (hydroxypropylcellulose) (HPC)) was 100 % of control and 105 % of control, the T/C (dose: 50.0 mg/kg/injection, schedule: Q01DX001 (ip), vehicle: saline) was 112 % of control and the T/C (dose: 100.0 mg/kg/injection, schedule: Q01DX001 (ip), vehicle: Klucel (hydroxypropylcellulose) (HPC)) was 100 % of control.

With FC(F)(F)C(OCC1CO1)(c1cccc(C(OCC2CO2)(C(F)(F)F)C(F)(F)F)c1)C(F)(F)F (stereo unspecified) the T/C [1] was 99 % of control, the T/C [2] was 100 % of control and the T/C [3] was 100 % of control.

Cc1ccc(Cc2nnc(C)c3c(C)[nH]nc23)cc1 was tested, and the T/C [1] was 100 % of control, the T/C [2] was 95 % of control and the T/C [3] was 93 % of control.

C[N+](C)(C)CCO was tested, and the T/C [4] was 105 % of control, the T/C [5] was 98 % of control and the T/C [6] was 96 % of control.

For COC(=O)Nc1nc2ccc(C(C)(O)c3cccs3)cc2[nH]1 (stereo unspecified), the T/C (dose: 25.0 mg/kg/injection, schedule: Q01DX005 (ip), vehicle: saline with Tween-80) was 100 % of control, the T/C [7] was 103 % of control and the T/C [8] was 103 % of control. For the same compound, the T/C [9] was 100 % of control.

For COc1ccc2c(c1)C1CN(Cc3ccccc31)C2 (stereo unspecified), the T/C (dose: 100.0 mg/kg/injection, schedule: Q01DX001 (ip), vehicle: saline with Tween-80) was 99 % of control.

For CCN(CC)C(Cl)=Nc1ccc(Cl)cc1, the T/C [1] was 94 % of control, the T/C [2] was 100 % of control and the T/C [3] was 94 % of control.

O=C1c2ccccc2C(=O)c2c(Cl)ccc(O)c21 was tested, and the T/C [10] was 98 % of control and 94 % of control, the T/C [11] was 99 % of control and 92 % of control and the T/C [12] was 104 % of control and 112 % of control. The T/C [13] was 111 % of control and 112 % of control.

With OC(C[n+]1ccccc1)c1ccccc1 (stereo unspecified) the T/C [14] was 105 % of control, the T/C [4] was 100 % of control and the T/C [5] was 109 % of control. The T/C [6] was 100 % of control.

With O=NNc1nc(-c2ccccn2)nc2ccccc12 the T/C (dose: 3.12 mg/kg/injection, schedule: Q01DX009 (ip), vehicle: DMSO) was 109 % of control, the T/C (dose: 6.25 mg/kg/injection, schedule: Q01DX009 (ip), vehicle: DMSO) was 94 % of control and the T/C (dose: 12.5 mg/kg/injection, schedule: Q01DX009 (ip), vehicle: DMSO) was 105 % of control. The T/C (dose: 25.0 mg/kg/injection, schedule: Q01DX009 (ip), vehicle: DMSO) was 102 % of control.

COc1ccc(NC(=O)Nc2nc3c(C)cccc3s2)cc1 was tested, and the T/C [15] was 101 % of control, the T/C [16] was 98 % of control and the T/C [17] was 93 % of control.

In the case of O=[N+]([O-])c1cc(I)c(O)c(/C=N/NS(=O)(=O)c2ccc(Cl)cc2)c1, the T/C [7] is reported as 101 % of control and the T/C [8] is reported as 100 % of control.

For O=c1[nH]c(=O)n(C2OC(CO)C(O)C2O)cc1N1CCOCC1 (stereo unspecified), the T/C [18] was 100 % of control, the T/C [19] was 100 % of control and the T/C [20] was 98 % of control.

With CNC(=O)c1ccccc1O the T/C [10] was 103 % of control, the T/C [11] was 103 % of control and the T/C [12] was 95 % of control. For the same compound, the T/C [13] was 90 % of control.

In the case of CC(Cl)C(=O)N(C)c1ccccc1 (stereo unspecified), the T/C (dose: 100.0 mg/kg/injection, schedule: Q04DX003 (ip), vehicle: Klucel (hydroxypropylcellulose) (HPC)) is reported as 96 % of control and the T/C (dose: 200.0 mg/kg/injection, schedule: Q04DX003 (ip), vehicle: Klucel (hydroxypropylcellulose) (HPC)) is reported as 92 % of control.

For C/C1=C/CCC(C)c2cc(OC(=O)c3ccccc3)c(C)cc2C1 (stereo unspecified), the T/C (dose: 25.0 mg/kg/injection, schedule: Q01DX005 (ip), vehicle: Klucel (hydroxypropylcellulose) (HPC)) was 104 % of control, the T/C [15] was 99 % of control and the T/C (dose: 70.0 mg/kg/injection, schedule: Q01DX005 (ip), vehicle: Klucel (hydroxypropylcellulose) (HPC)) was 90 % of control. The T/C [16] was 107 % of control, the T/C (dose: 140.0 mg/kg/injection, schedule: Q01DX005 (ip), vehicle: Klucel (hydroxypropylcellulose) (HPC)) was 95 % of control and the T/C [17] was 95 % of control. The T/C (dose: 280.0 mg/kg/injection, schedule: Q01DX005 (ip), vehicle: Klucel (hydroxypropylcellulose) (HPC)) was 90 % of control and the T/C (dose: 560.0 mg/kg/injection, schedule: Q01DX005 (ip), vehicle: Klucel (hydroxypropylcellulose) (HPC)) was 90 % of control.

O=C(O)c1c[nH]c2cc(OCCc3ccccc3)ccc2c1=O was tested, and the T/C [6] was 101 % of control, the T/C (dose: 100.0 mg/kg/injection, schedule: Q01DX009 (ip), vehicle: saline) was 107 % of control and the T/C (dose: 200.0 mg/kg/injection, schedule: Q01DX009 (ip), vehicle: saline) was 107 % of control.

O=C(CN1CC1)NCCCCCCCCCNC(=O)CN1CC1 was tested, and the T/C (dose: 2.5 mg/kg/injection, schedule: Q01DX009 (ip), vehicle: saline with Tween-80) was 90 % of control, the T/C (dose: 5.0 mg/kg/injection, schedule: Q01DX009 (ip), vehicle: saline with Tween-80) was 150 % of control and the T/C (dose: 10.0 mg/kg/injection, schedule: Q01DX009 (ip), vehicle: saline with Tween-80) was 186 % of control.

With CCOC(=O)/C=C(\Cl)C(=O)OCC the T/C (dose: 1.56 mg/kg/injection, schedule: Q01DX009 (ip), vehicle: saline with Tween-80) was 95 % of control, the T/C (dose: 1.56 mg/kg/injection, schedule: Q01DX009 (ip), vehicle: saline) was 101 % of control and the T/C (dose: 3.13 mg/kg/injection, schedule: Q01DX009 (ip), vehicle: saline with Tween-80) was 104 % of control and 110 % of control. For the same compound, the T/C (dose: 3.13 mg/kg/injection, schedule: Q01DX009 (ip), vehicle: saline) was 103 % of control, the T/C (dose: 6.25 mg/kg/injection, schedule: Q01DX009 (ip), vehicle: saline with Tween-80) was 111 % of control and 123 % of control and the T/C [14] was 112 % of control. For the same compound, the T/C (dose: 12.5 mg/kg/injection, schedule: Q01DX009 (ip), vehicle: saline with Tween-80) was 111 % of control and the T/C [4] was 118 % of control.

COC(=O)C1=C(C)NC(C)=C(C(=O)OC)C1c1cc2ccccc2nc1Cl was tested, and the T/C [7] was 92 % of control, the T/C [8] was 88 % of control and the T/C [9] was 92 % of control.

In the case of CC(C)(C(=O)O)C(C)(C)C(=O)O, the T/C (dose: 1.56 mg/kg/injection, schedule: Q01DX001 (ip), vehicle: saline) is reported as 102 % of control and the T/C (dose: 3.12 mg/kg/injection, schedule: Q01DX001 (ip), vehicle: saline) is reported as 101 % of control.

In the case of O=C1CS(=O)(=O)C(c2cccc(Cl)c2)N1N1C(=O)CS(=O)(=O)C1c1cccc(Cl)c1 (stereo unspecified), the T/C [7] is reported as 92 % of control, the T/C [8] is reported as 100 % of control and the T/C [9] is reported as 92 % of control.

With CSC(=O)NCCCN(C)C the T/C [18] was 106 % of control, the T/C [19] was 107 % of control and the T/C [20] was 104 % of control.

With N#Cc1ccccc1C#N the T/C (dose: 1.56 mg/kg/injection, schedule: Q04DX003 (ip), vehicle: saline) was 98 % of control, the T/C (dose: 3.13 mg/kg/injection, schedule: Q04DX003 (ip), vehicle: saline) was 98 % of control and the T/C (dose: 6.25 mg/kg/injection, schedule: Q04DX003 (ip), vehicle: saline) was 100 % of control. The T/C (dose: 12.5 mg/kg/injection, schedule: Q04DX003 (ip), vehicle: saline with Tween-80) was 104 % of control, the T/C (dose: 12.5 mg/kg/injection, schedule: Q04DX003 (ip), vehicle: saline) was 100 % of control and the T/C (dose: 25.0 mg/kg/injection, schedule: Q04DX003 (ip), vehicle: saline with Tween-80) was 95 % of control.
